In the NIST ThermoML archive (doi:10.1016/j.jct.2005.07.009):

Experiments:
[1] = excess molar enthalpy (molar enthalpy of mixing); xn = mol fraction of the nth substance listed; settings: 298.15 K, 101 kPa, Liquid
[2] = xn = mol fraction of the nth substance listed; settings: 298.15 K, 101 kPa, Liquid, Vibrating tube method

BrCCCBr [1,3-dibromopropane] + CCOC(=O)CC
Settings | excess molar enthalpy [kcal/mol] | mass density [kg/m3]
[1], x2 = 0.0471 | 0.00559 | –
[1], x2 = 0.1006 | 0.0087 | –
[1], x2 = 0.1564 | 0.00918 | –
[1], x2 = 0.2139 | 0.00786 | –
[1], x2 = 0.2707 | 0.00387 | –
[1], x2 = 0.3244 | -0.000813 | –
[1], x2 = 0.3765 | -0.00605 | –
[1], x2 = 0.4201 | -0.0111 | –
[1], x2 = 0.4478 | -0.0156 | –
[1], x2 = 0.4591 | -0.0195 | –
[1], x2 = 0.493 | -0.0144 | –
[1], x2 = 0.4983 | -0.0205 | –
[1], x2 = 0.5563 | -0.0245 | –
[1], x2 = 0.6207 | -0.026 | –
[1], x2 = 0.6908 | -0.0251 | –
[1], x2 = 0.7671 | -0.0219 | –
[1], x2 = 0.8476 | -0.0164 | –
[1], x2 = 0.9262 | -0.00906 | –
[2], x2 = 0.1075 | – | 1839.36
[2], x2 = 0.161 | – | 1775.98
[2], x2 = 0.2159 | – | 1711.67
[2], x2 = 0.2732 | – | 1645.81
[2], x2 = 0.3842 | – | 1520.67
[2], x2 = 0.4468 | – | 1451.66
[2], x2 = 0.5011 | – | 1392.66
[2], x2 = 0.5622 | – | 1327.28
[2], x2 = 0.6827 | – | 1201.05
[2], x2 = 0.7443 | – | 1137.95
[2], x2 = 0.8686 | – | 1013.23

BrCCCCCBr [1,5-dibromopentane] + CCCCC(=O)OCC
Settings | excess molar enthalpy [kcal/mol] | mass density [kg/m3]
[1], x2 = 0.0537 | 0.00703 | –
[1], x2 = 0.1124 | 0.012 | –
[1], x2 = 0.1746 | 0.0158 | –
[1], x2 = 0.2384 | 0.0178 | –
[1], x2 = 0.3005 | 0.0179 | –
[1], x2 = 0.3573 | 0.0158 | –
[1], x2 = 0.4121 | 0.012 | –
[1], x2 = 0.4619 | 0.00674 | –
[1], x2 = 0.5075 | 0.00098 | –
[1], x2 = 0.5483 | -0.00344 | –
[1], x2 = 0.5745 | -0.00566 | –
[1], x2 = 0.6374 | -0.00863 | –
[1], x2 = 0.7074 | -0.01 | –
[1], x2 = 0.7809 | -0.00994 | –
[1], x2 = 0.8572 | -0.00848 | –
[1], x2 = 0.9337 | -0.00483 | –
[2], x2 = 0.0539 | – | 1645.46
[2], x2 = 0.1105 | – | 1595.11
[2], x2 = 0.1636 | – | 1548.32
[2], x2 = 0.2206 | – | 1498.77
[2], x2 = 0.3289 | – | 1405.86
[2], x2 = 0.3899 | – | 1354.43
[2], x2 = 0.4455 | – | 1307.95
[2], x2 = 0.5024 | – | 1260.98
[2], x2 = 0.5632 | – | 1211.27
[2], x2 = 0.5935 | – | 1186.69
[2], x2 = 0.6792 | – | 1117.97
[2], x2 = 0.7412 | – | 1068.93
[2], x2 = 0.803 | – | 1020.6
[2], x2 = 0.8672 | – | 970.91
[2], x2 = 0.9294 | – | 923.31

BrCCCCBr [1,4-dibromobutane] + CCOC=O
Settings | excess molar enthalpy [kcal/mol] | mass density [kg/m3]
[1], x2 = 0.0799 | 0.0549 | –
[1], x2 = 0.1652 | 0.0897 | –
[1], x2 = 0.2469 | 0.118 | –
[1], x2 = 0.3246 | 0.135 | –
[1], x2 = 0.397 | 0.145 | –
[1], x2 = 0.4607 | 0.149 | –
[1], x2 = 0.5109 | 0.147 | –
[1], x2 = 0.5179 | 0.148 | –
[1], x2 = 0.5525 | 0.145 | –
[1], x2 = 0.5649 | 0.143 | –
[1], x2 = 0.5973 | 0.14 | –
[1], x2 = 0.6082 | 0.137 | –
[1], x2 = 0.6459 | 0.131 | –
[1], x2 = 0.6929 | 0.121 | –
[1], x2 = 0.7514 | 0.103 | –
[1], x2 = 0.8051 | 0.0847 | –
[1], x2 = 0.8598 | 0.0615 | –
[1], x2 = 0.9121 | 0.0378 | –
[1], x2 = 0.9614 | 0.0142 | –
[2], x2 = 0.0952 | – | 1765.32
[2], x2 = 0.1744 | – | 1716.81
[2], x2 = 0.2604 | – | 1660.33
[2], x2 = 0.3295 | – | 1611.72
[2], x2 = 0.4012 | – | 1557.95
[2], x2 = 0.4668 | – | 1505.48
[2], x2 = 0.5355 | – | 1446.96
[2], x2 = 0.5888 | – | 1398.87
[2], x2 = 0.6436 | – | 1346.56
[2], x2 = 0.6981 | – | 1291.4
[2], x2 = 0.7934 | – | 1186.14
[2], x2 = 0.9238 | – | 1023.59
[2], x2 = 0.9623 | – | 970.42

BrCCCCCCBr [1,6-dibromohexane] + CCCCC(=O)OCC
Settings | excess molar enthalpy [kcal/mol] | mass density [kg/m3]
[1], x2 = 0.0622 | 0.00727 | –
[1], x2 = 0.1322 | 0.011 | –
[1], x2 = 0.2027 | 0.0138 | –
[1], x2 = 0.2702 | 0.015 | –
[1], x2 = 0.3359 | 0.0146 | –
[1], x2 = 0.3944 | 0.0124 | –
[1], x2 = 0.4464 | 0.00935 | –
[1], x2 = 0.4901 | 0.00566 | –
[1], x2 = 0.5274 | 0.00182 | –
[1], x2 = 0.5624 | -0.00213 | –
[1], x2 = 0.6245 | -0.00614 | –
[1], x2 = 0.6853 | -0.00767 | –
[1], x2 = 0.7481 | -0.00784 | –
[1], x2 = 0.8143 | -0.00715 | –
[1], x2 = 0.8791 | -0.00547 | –
[1], x2 = 0.947 | -0.00327 | –
[2], x2 = 0.0648 | – | 1555.13
[2], x2 = 0.1774 | – | 1474.02
[2], x2 = 0.2329 | – | 1433.91
[2], x2 = 0.2964 | – | 1387.86
[2], x2 = 0.4137 | – | 1302.47
[2], x2 = 0.5312 | – | 1216.59
[2], x2 = 0.5868 | – | 1175.74
[2], x2 = 0.6906 | – | 1099.24
[2], x2 = 0.7612 | – | 1047.08
[2], x2 = 0.819 | – | 1004.24
[2], x2 = 0.8814 | – | 957.89
[2], x2 = 0.934 | – | 918.67

BrCCCCBr [1,4-dibromobutane] + CCOC(C)=O
Settings | excess molar enthalpy [kcal/mol] | mass density [kg/m3]
[1], x2 = 0.0724 | 0.0259 | –
[1], x2 = 0.1477 | 0.0417 | –
[1], x2 = 0.2228 | 0.0516 | –
[1], x2 = 0.2954 | 0.0559 | –
[1], x2 = 0.3654 | 0.0562 | –
[1], x2 = 0.4273 | 0.0538 | –
[1], x2 = 0.4836 | 0.0497 | –
[1], x2 = 0.5346 | 0.0447 | –
[1], x2 = 0.5727 | 0.0394 | –
[1], x2 = 0.6226 | 0.0329 | –
[1], x2 = 0.6702 | 0.0265 | –
[1], x2 = 0.7257 | 0.0205 | –
[1], x2 = 0.7826 | 0.0143 | –
[1], x2 = 0.8416 | 0.00927 | –
[1], x2 = 0.8982 | 0.00521 | –
[1], x2 = 0.9516 | 0.00241 | –
[2], x2 = 0.0713 | – | 1763.64
[2], x2 = 0.1362 | – | 1711.83
[2], x2 = 0.2057 | – | 1654.85
[2], x2 = 0.2657 | – | 1604.71
[2], x2 = 0.3922 | – | 1495.44
[2], x2 = 0.4539 | – | 1440.32
[2], x2 = 0.5154 | – | 1384.15
[2], x2 = 0.5749 | – | 1328.61
[2], x2 = 0.683 | – | 1224.74
[2], x2 = 0.7406 | – | 1167.52
[2], x2 = 0.7867 | – | 1121.03
[2], x2 = 0.8486 | – | 1057.13
[2], x2 = 0.9 | – | 1002.89
[2], x2 = 0.9494 | – | 949.81

BrCCCBr [1,3-dibromopropane] + CCCCC(=O)OCC
Settings | excess molar enthalpy [kcal/mol] | mass density [kg/m3]
[1], x2 = 0.0175 | 0.00339 | –
[1], x2 = 0.0382 | 0.00617 | –
[1], x2 = 0.0611 | 0.00844 | –
[1], x2 = 0.0911 | 0.00906 | –
[1], x2 = 0.1259 | 0.00923 | –
[1], x2 = 0.1645 | 0.00882 | –
[1], x2 = 0.205 | 0.00784 | –
[1], x2 = 0.247 | 0.00564 | –
[1], x2 = 0.2878 | 0.00201 | –
[1], x2 = 0.3293 | -0.00241 | –
[1], x2 = 0.3706 | -0.00626 | –
[1], x2 = 0.4062 | -0.00927 | –
[1], x2 = 0.4471 | -0.0122 | –
[1], x2 = 0.4985 | -0.0154 | –
[1], x2 = 0.5544 | -0.017 | –
[1], x2 = 0.6183 | -0.0182 | –
[1], x2 = 0.6862 | -0.0188 | –
[1], x2 = 0.7558 | -0.0182 | –
[1], x2 = 0.8251 | -0.0156 | –
[1], x2 = 0.8833 | -0.0117 | –
[1], x2 = 0.946 | -0.00602 | –
[2], x2 = 0.0408 | – | 1905.88
[2], x2 = 0.0868 | – | 1836.07
[2], x2 = 0.1296 | – | 1773.38
[2], x2 = 0.177 | – | 1707.11
[2], x2 = 0.273 | – | 1579.99
[2], x2 = 0.325 | – | 1515.4
[2], x2 = 0.3803 | – | 1449.57
[2], x2 = 0.437 | – | 1385.12
[2], x2 = 0.5197 | – | 1296
[2], x2 = 0.6902 | – | 1128.6
[2], x2 = 0.7601 | – | 1065.64
[2], x2 = 0.8344 | – | 1001.96
[2], x2 = 0.9163 | – | 935.2
